Experiments:
[1] = 298.15 K, 101.33 kPa, Liquid; for viscosity: Capillary tube (Ostwald / Ubbelohde) method; for speed of sound: Sing-around technique in a fixed-path interferometer; for mass density: Vibrating tube method
[2] = xn = mol fraction of the nth substance listed; conditions: 298.15 K, 101.33 kPa, Liquid; for viscosity: Capillary tube (Ostwald / Ubbelohde) method; for speed of sound: Sing-around technique in a fixed-path interferometer; for mass density: Vibrating tube method

Cc1ccccc1C [1,2-dimethylbenzene]
[1]
Conditions | mass density [kg/m3] | speed of sound [m/s] | viscosity [mPa·s]
– | 875.2 | 1349 | 0.769

Cc1ccccc1C [1,2-dimethylbenzene] + CC(=O)CC(C)C
[2], x1 = 1
Conditions | mass density [kg/m3] | speed of sound [m/s] | viscosity [mPa·s]
– | 875.2 | 1349 | 0.769

Cc1cccc(C)c1 [1,3-dimethylbenzene]
[1]
Conditions | mass density [kg/m3] | speed of sound [m/s] | viscosity [mPa·s]
– | 859.4 | 1323 | 0.587

Cc1cccc(C)c1 [1,3-dimethylbenzene] + CC(=O)CC(C)C
[2], x1 = 1
Conditions | mass density [kg/m3] | speed of sound [m/s] | viscosity [mPa·s]
– | 859.4 | 1323 | 0.587

Cc1ccc(C)cc1 [1,4-dimethylbenzene]
[1]
Conditions | mass density [kg/m3] | speed of sound [m/s] | viscosity [mPa·s]
– | 856.1 | 1316 | 0.609

Cc1ccc(C)cc1 [1,4-dimethylbenzene] + CC(=O)CC(C)C
[2], x1 = 1
Conditions | mass density [kg/m3] | speed of sound [m/s] | viscosity [mPa·s]
– | 856.1 | 1316 | 0.609

CC(=O)CC(C)C [4-methylpentan-2-one]
[1]
Conditions | mass density [kg/m3] | speed of sound [m/s] | viscosity [mPa·s]
– | 796 | 1215 | 0.55

CC(=O)CC(C)C [4-methylpentan-2-one] + CC(C)c1ccccc1
[2], x2 = 0
Conditions | mass density [kg/m3] | speed of sound [m/s] | viscosity [mPa·s]
– | 796 | 1215 | 0.55

CC(=O)CC(C)C [4-methylpentan-2-one] + Cc1ccc(C)cc1
[2]
Conditions | mass density [kg/m3] | speed of sound [m/s] | viscosity [mPa·s]
x2 = 0 | 796 | 1215 | 0.55
x2 = 0.059 | 800.1 | 1215 | 0.553
x2 = 0.1454 | 805.8 | 1226 | 0.556
x2 = 0.2887 | 814.9 | 1248 | 0.562
x2 = 0.4325 | 823.6 | 1267 | 0.567
x2 = 0.5735 | 832.2 | 1284 | 0.572
x2 = 0.7166 | 840.5 | 1300 | 0.579
x2 = 0.8587 | 848.4 | 1311 | 0.591
x2 = 0.9419 | 853 | 1315 | 0.6

CC(=O)CC(C)C [4-methylpentan-2-one] + Cc1cccc(C)c1
[2]
Conditions | mass density [kg/m3] | speed of sound [m/s] | viscosity [mPa·s]
x2 = 0 | 796 | 1215 | 0.55
x2 = 0.0586 | 801.4 | 1207 | 0.554
x2 = 0.1483 | 809.5 | 1212 | 0.558
x2 = 0.2898 | 821.2 | 1233 | 0.564
x2 = 0.4312 | 830.5 | 1257 | 0.567
x2 = 0.5762 | 837.4 | 1280 | 0.569
x2 = 0.7187 | 842.8 | 1299 | 0.572
x2 = 0.8591 | 849 | 1314 | 0.577
x2 = 0.9429 | 854.4 | 1321 | 0.582

CC(=O)CC(C)C [4-methylpentan-2-one] + Cc1ccccc1C
[2]
Conditions | mass density [kg/m3] | speed of sound [m/s] | viscosity [mPa·s]
x2 = 0 | 796 | 1215 | 0.55
x2 = 0.0598 | 801.3 | 1214 | 0.562
x2 = 0.1483 | 808.9 | 1220 | 0.577
x2 = 0.2932 | 820.7 | 1237 | 0.605
x2 = 0.4368 | 832.2 | 1263 | 0.631
x2 = 0.582 | 843.4 | 1294 | 0.662
x2 = 0.7227 | 854.5 | 1318 | 0.694
x2 = 0.8635 | 865.1 | 1336 | 0.73
x2 = 0.9457 | 871.2 | 1345 | 0.751

CC(C)c1ccccc1 [isopropylbenzene]
[1]
Conditions | mass density [kg/m3] | speed of sound [m/s] | viscosity [mPa·s]
– | 857.1 | 1338 | 0.739

CC(C)c1ccccc1 [isopropylbenzene] + CC(=O)CC(C)C
[2]
Conditions | mass density [kg/m3] | speed of sound [m/s] | viscosity [mPa·s]
x1 = 0.0518 | 799.4 | 1227 | 0.563
x1 = 0.1305 | 804.6 | 1231 | 0.579
x1 = 0.2631 | 813.4 | 1234 | 0.6
x1 = 0.4022 | 822.6 | 1246 | 0.621
x1 = 0.5439 | 831.5 | 1262 | 0.645
x1 = 0.6917 | 840.3 | 1282 | 0.672
x1 = 0.842 | 848.7 | 1309 | 0.704
x1 = 0.9355 | 853.7 | 1325 | 0.725
x1 = 1 | 857.1 | 1338 | 0.739

Source: the NIST ThermoML archive (doi:10.1021/je049899g)
